Results as given in the NIST ThermoML archive (doi:10.1016/j.jct.2008.10.010).
Numbers after ± are expanded uncertainties.

Assay: molar heat capacity at constant pressure; xn = mol fraction of the nth substance listed
Details: 101.3 kPa, Liquid, Small sample (50 mg) DSC

CCC(C)(C)O [2-methylbutan-2-ol] + CCCCCCC
Details | molar heat capacity at constant pressure [J/K/mol]
292.14 K, x1 = 0.9609 | 240.86 ± 3.7
292.16 K, x1 = 0.0249 | 228.51 ± 3.5
293.14 K, x1 = 0.0061 | 223.05 ± 3.5
293.14 K, x1 = 0.0249 | 228.85 ± 3.5
293.14 K, x1 = 0.0494 | 233.49 ± 3.6
293.14 K, x1 = 0.1 | 238.13 ± 3.7
293.14 K, x1 = 0.1547 | 240.82 ± 3.7
293.14 K, x1 = 0.1999 | 242.32 ± 3.8
293.14 K, x1 = 0.2993 | 244.48 ± 3.8
293.14 K, x1 = 0.4051 | 245.2 ± 3.8
293.14 K, x1 = 0.4986 | 245.35 ± 3.8
293.14 K, x1 = 0.5981 | 245.12 ± 3.8
293.14 K, x1 = 0.7015 | 244.38 ± 3.8
293.14 K, x1 = 0.8023 | 243.13 ± 3.8
293.14 K, x1 = 0.9139 | 242.22 ± 3.8
293.14 K, x1 = 0.9609 | 241.95 ± 3.8
294.15 K, x1 = 0.0061 | 223.39 ± 3.5
294.15 K, x1 = 0.0249 | 229.18 ± 3.5
294.15 K, x1 = 0.0494 | 233.86 ± 3.6
294.15 K, x1 = 0.1 | 238.71 ± 3.7
294.15 K, x1 = 0.1547 | 241.58 ± 3.7
294.15 K, x1 = 0.1999 | 243.15 ± 3.8
294.15 K, x1 = 0.2993 | 245.43 ± 3.8
294.15 K, x1 = 0.4051 | 246.27 ± 3.8
294.15 K, x1 = 0.4986 | 246.46 ± 3.8
294.15 K, x1 = 0.5981 | 246.23 ± 3.8
294.15 K, x1 = 0.7015 | 245.52 ± 3.8
294.15 K, x1 = 0.8023 | 244.34 ± 3.8
294.15 K, x1 = 0.9139 | 243.38 ± 3.8
294.15 K, x1 = 0.9609 | 243.11 ± 3.8
295.14 K, x1 = 0.0061 | 223.7 ± 3.5
295.14 K, x1 = 0.0249 | 229.37 ± 3.5
295.14 K, x1 = 0.0494 | 234.25 ± 3.6
295.14 K, x1 = 0.1 | 239.22 ± 3.7
295.14 K, x1 = 0.1547 | 242.31 ± 3.8
295.14 K, x1 = 0.1999 | 243.96 ± 3.8
295.14 K, x1 = 0.2993 | 246.32 ± 3.8
295.14 K, x1 = 0.4051 | 247.28 ± 3.8
295.14 K, x1 = 0.4986 | 247.54 ± 3.8
295.14 K, x1 = 0.5981 | 247.38 ± 3.8
295.14 K, x1 = 0.7015 | 246.7 ± 3.8
295.14 K, x1 = 0.8023 | 245.54 ± 3.8
295.14 K, x1 = 0.9139 | 244.5 ± 3.8
295.14 K, x1 = 0.9609 | 244.22 ± 3.8
296.14 K, x1 = 0.0061 | 223.96 ± 3.5
296.14 K, x1 = 0.0249 | 229.63 ± 3.6
296.14 K, x1 = 0.0494 | 234.59 ± 3.6
296.14 K, x1 = 0.1 | 239.76 ± 3.7
296.14 K, x1 = 0.1547 | 242.94 ± 3.8
296.14 K, x1 = 0.1999 | 244.6 ± 3.8
296.14 K, x1 = 0.2993 | 247.2 ± 3.8
296.14 K, x1 = 0.4051 | 248.27 ± 3.9
296.14 K, x1 = 0.4986 | 248.61 ± 3.9
296.14 K, x1 = 0.5981 | 248.5 ± 3.9
296.14 K, x1 = 0.7015 | 247.88 ± 3.8
296.14 K, x1 = 0.8023 | 246.68 ± 3.8
296.14 K, x1 = 0.9139 | 245.64 ± 3.8
296.14 K, x1 = 0.9609 | 245.31 ± 3.8
297.15 K, x1 = 0.0061 | 224.33 ± 3.5
297.15 K, x1 = 0.0249 | 229.81 ± 3.6
297.15 K, x1 = 0.0494 | 235.01 ± 3.6
297.15 K, x1 = 0.1 | 240.36 ± 3.7
297.15 K, x1 = 0.1547 | 243.63 ± 3.8
297.15 K, x1 = 0.1999 | 245.46 ± 3.8
297.15 K, x1 = 0.2993 | 248.18 ± 3.8
297.15 K, x1 = 0.4051 | 249.33 ± 3.9
297.15 K, x1 = 0.4986 | 249.76 ± 3.9
297.15 K, x1 = 0.5981 | 249.72 ± 3.9
297.15 K, x1 = 0.7015 | 249.04 ± 3.9
297.15 K, x1 = 0.8023 | 247.89 ± 3.8
297.15 K, x1 = 0.9139 | 246.86 ± 3.8
297.15 K, x1 = 0.9609 | 246.4 ± 3.8
298.14 K, x1 = 0.0061 | 224.65 ± 3.5
298.14 K, x1 = 0.0249 | 230.08 ± 3.6
298.14 K, x1 = 0.0494 | 235.35 ± 3.6
298.14 K, x1 = 0.1 | 240.89 ± 3.7
298.14 K, x1 = 0.1547 | 244.27 ± 3.8
298.14 K, x1 = 0.1999 | 246.18 ± 3.8
298.14 K, x1 = 0.2993 | 249.05 ± 3.9
298.14 K, x1 = 0.4051 | 250.35 ± 3.9
298.14 K, x1 = 0.4986 | 250.83 ± 3.9
298.14 K, x1 = 0.5981 | 250.81 ± 3.9
298.14 K, x1 = 0.7015 | 250.24 ± 3.9
298.14 K, x1 = 0.8023 | 249.08 ± 3.9
298.14 K, x1 = 0.9139 | 247.97 ± 3.8
298.14 K, x1 = 0.9609 | 247.48 ± 3.8
298.16 K, x1 = 0.0061 | 224.66 ± 3.5
298.16 K, x1 = 0.0249 | 230.09 ± 3.6
298.16 K, x1 = 0.0494 | 235.36 ± 3.6
298.16 K, x1 = 0.1 | 240.91 ± 3.7
298.16 K, x1 = 0.1547 | 244.3 ± 3.8
298.16 K, x1 = 0.1999 | 246.2 ± 3.8
298.16 K, x1 = 0.2993 | 249.07 ± 3.9
298.16 K, x1 = 0.4051 | 250.39 ± 3.9
298.16 K, x1 = 0.4986 | 250.87 ± 3.9
298.16 K, x1 = 0.5981 | 250.84 ± 3.9
298.16 K, x1 = 0.7015 | 250.29 ± 3.9
298.16 K, x1 = 0.8023 | 249.11 ± 3.9
298.16 K, x1 = 0.9139 | 248 ± 3.8
298.16 K, x1 = 0.9609 | 247.52 ± 3.8
299.14 K, x1 = 0.0061 | 224.99 ± 3.5
299.14 K, x1 = 0.0249 | 230.35 ± 3.6
299.14 K, x1 = 0.0494 | 235.67 ± 3.6
299.14 K, x1 = 0.1 | 241.48 ± 3.7
299.14 K, x1 = 0.1547 | 244.98 ± 3.8
299.14 K, x1 = 0.1999 | 246.99 ± 3.8
299.14 K, x1 = 0.2993 | 249.97 ± 3.9
299.14 K, x1 = 0.4051 | 251.31 ± 3.9
299.14 K, x1 = 0.4986 | 251.91 ± 3.9
299.14 K, x1 = 0.5981 | 251.9 ± 3.9
299.14 K, x1 = 0.7015 | 251.35 ± 3.9
299.14 K, x1 = 0.8023 | 250.25 ± 3.9
299.14 K, x1 = 0.9139 | 249.1 ± 3.9
299.14 K, x1 = 0.9609 | 248.6 ± 3.9
300.15 K, x1 = 0.0061 | 225.26 ± 3.5
300.15 K, x1 = 0.0249 | 230.51 ± 3.6
300.15 K, x1 = 0.0494 | 236 ± 3.7
300.15 K, x1 = 0.1 | 241.9 ± 3.8
300.15 K, x1 = 0.1547 | 245.57 ± 3.8
300.15 K, x1 = 0.1999 | 247.7 ± 3.8
300.15 K, x1 = 0.2993 | 250.81 ± 3.9
300.15 K, x1 = 0.4051 | 252.27 ± 3.9
300.15 K, x1 = 0.4986 | 252.92 ± 3.9
300.15 K, x1 = 0.5981 | 253 ± 3.9
